ChEMBL document CHEMBL1667812, “Compounds from Kadsura angustifolia with anti-HIV activity” (Bioorg Med Chem Lett, 2011)
Values after ≈ are worked out from the molar mass of the structure shown.

Experiments:
[1] = Cytotoxicity against human […] cells; assay type: cell-based
[2] = tested on: Human immunodeficiency virus 1; test: Antiviral activity against HIV1-3B infected in human […] cells assessed as inhibition of virus-induced cytopathic effect; assay type: functional, organism-based; conditions: Human immunodeficiency virus 1, 3B
[3] = Therapeutic index, ratio of CC50 for human […] cells to EC50 for HIV1-3B; assay type: cell-based; conditions: read-out: Ratio CC50/EC50

Row | Compound | EC50 [2] | CC50 [1] | selectivity ratio [3]
1 | C/C=C(/C)C(=O)O[C@H]1c2cc3c(c(OC)c2-c2c(cc4c(c2OC)OCO4)C[C@H](C)[C@]1(C)O)OCO3 [INTERIOTHERIN B] | 19 µg/mL (≈ 38.1 µM) | > 200 µg/mL | > 10.5
2 | C/C=C(/C)C(=O)O[C@H]1c2cc(OC)c(OC)c(OC)c2-c2c(cc3c(c2OC)OCO3)C[C@H](C)[C@]1(C)O [SCHISANTHERIN B] | 22.1 µg/mL (≈ 42.9 µM) | > 200 µg/mL | > 9.05
3 | COc1c2c(cc3c1-c1c(cc4c(c1OC)OCO4)[C@H](OC(=O)c1ccccc1)[C@@](C)(O)[C@@H](C)C3)OCO2 [SCHISANTHERIN D] | 20.5 µg/mL (≈ 39.4 µM) | > 200 µg/mL | > 9.76
4 | COc1cc2c(c(OC)c1OC)-c1c(cc(OC)c(OC)c1OC)C[C@](C)(O)[C@@H](C)C2 [SCHIZANDRIN] | 15.8 µg/mL (≈ 36.5 µM) | > 200 µg/mL | > 12.7
5 | Cc1cn([C@H]2C[C@H](N=[N+]=[N-])[C@@H](CO)O2)c(=O)[nH]c1=O [ZIDOVUDINE] | 0.0033 µg/mL (≈ 0.0123 µM) | > 200 µg/mL | > 60600

Continued, in another order:

Row | EC50 [2] | Compound | CC50 [1] | selectivity ratio [3]
6 | 6.11 µg/mL (≈ 13.1 µM) | C=C(CC/C=C(/C)C(=O)O)C1=CC[C@@]2(C)[C@@H]3[C@H]4C[C@H](C(=C)C)[C@@]5(CCC(=O)O4)C[C@@]35CC[C@]12C [ANGUSTIFIC ACID A] | > 200 µg/mL | > 32.8
7 | 11.2 µg/mL (≈ 21.7 µM) | C=C(C)[C@@H]1C[C@H](O)[C@@H]2[C@]3(CC[C@]4(C)C([C@@](C)(O)CC/C=C(/C)C(=O)O)=C[C@H](O)[C@@]24C)C[C@]13CCC(=O)O [ANGUSTIFIC ACID B] | 156 µg/mL (≈ 302 µM) | 13.9
8 | 13.3 µg/mL (≈ 25.1 µM) | CC1(C)OC(=O)C=C[C@]23C[C@]24C[C@H](O)[C@]2(C)[C@@H]([C@@](C)(O)[C@H]5CC=C(CO)C(=O)O5)CC[C@@]2(C)[C@@H]4C[C@H](O)[C@@H]13 [ANGUSTIFODILACTONE A] | 178 µg/mL (≈ 336 µM) | 13.4
9 | 13.6 µg/mL (≈ 26.4 µM) | CC1=CC[C@H]([C@](C)(O)[C@H]2CC[C@@]3(C)[C@@H]4C[C@H](O)[C@H]5C(C)(C)OC(=O)C=C[C@@]56C[C@@]46C[C@H](O)[C@]23C)OC1=O [ANGUSTIFODILACTONE B] | 182 µg/mL (≈ 354 µM) | 13.4
10 | 15.7 µg/mL (≈ 45.6 µM) | C=C(C)[C@@H]1CC[C@@H]2[C@]3(CC[C@]4(C)C(=O)CC[C@@]24C)C[C@]13CCC(=O)O [MICRANOIC ACID B] | 176 µg/mL (≈ 511 µM) | 11.2
11 | 10.5 µg/mL (≈ 22.3 µM) | C=C(C)[C@@H]1CC[C@@H]2[C@]3(CC[C@]4(C)[C@@H]([C@H](C)CC/C=C(/C)C(=O)O)CC[C@@]24C)C[C@]13CCC(=O)O [NIGRANOIC ACID] | 89 µg/mL (≈ 189 µM) | 8.48
